Organism: Rattus norvegicus
Test: DrugMatrix - Regimen: Daily Repeat
Format: toxicity, organism-based, Sprague-Dawley
Parameters: regimen Daily Repeat, gender Male, age 6-8 weeks
Conditions: in vivo, sc, route subcutaneous, […]; for ABSOLUTE BASOPHIL / ABSOLUTE EOSINOPHIL / ABSOLUTE LYMPHOCYTE / ABSOLUTE MONOCYTE / ABSOLUTE SEGMENTED NEUTROPHIL / BASOPHIL / EOSINOPHIL / ERYTHROCYTE COUNT / HEMATOCRIT / HEMOGLOBIN / LEUKOCYTE COUNT / LYMPHOCYTE / MEAN CORPUSCULAR HEMOGLOBIN / MEAN CORPUSCULAR HEMOGLOBIN CONCENTRATION / MEAN CORPUSCULAR VOLUME / MONOCYTE / NEUTROPHIL / NUCLEATED RED BLOOD CELLS / PLATELET COUNT: tissue Blood; for ALANINE AMINOTRANSFERASE / ALBUMIN / ALKALINE PHOSPHATASE / ASPARTATE AMINOTRANSFERASE / BLOOD UREA NITROGEN / CARBON DIOXIDE / CHLORIDE / CHOLESTEROL / CREATINE PHOSPHOKINASE / CREATININE / GLUCOSE / LACTATE DEHYDROGENASE / LIPASE / PHOSPHORUS / POTASSIUM / SODIUM / TOTAL BILIRUBIN / TOTAL PROTEIN / URIC ACID: tissue Plasma
[1] = 27 mg/kg, 120 h, dose level Low, time 5 day
[2] = 1200 mg/kg, 72 h, dose level High, time 3 day
[3] = 1200 mg/kg, 120 h, dose level High, time 5 day

## Clc1ccc(CSC(Cn2ccnc2)c2ccc(Cl)cc2Cl)cc1 (centres undefined) [SULCONAZOLE]
[1]
  ABSOLUTE BASOPHIL: 0 CELLS/uL
  ABSOLUTE EOSINOPHIL: 176 CELLS/uL
  ABSOLUTE LYMPHOCYTE: 10589.67 CELLS/uL
  ABSOLUTE MONOCYTE: 178.33 CELLS/uL
  ABSOLUTE SEGMENTED NEUTROPHIL: 2489.33 CELLS/uL
  BASOPHIL: 0%
  EOSINOPHIL: 1.33%
  ERYTHROCYTE COUNT: 5.26 x10E6/uL
  HEMATOCRIT: 33.93%
  HEMOGLOBIN: 13 G/DL
  LEUKOCYTE COUNT: 13.43 x10E3/uL
  LYMPHOCYTE: 78.33%
  MEAN CORPUSCULAR HEMOGLOBIN: 24.73 pg
  MEAN CORPUSCULAR HEMOGLOBIN CONCENTRATION: 38.3 G/DL
  MEAN CORPUSCULAR VOLUME: 64.6 fL
  MONOCYTE: 1.33%
  NEUTROPHIL: 19%
  NUCLEATED RED BLOOD CELLS: 0 /100WBC
  PLATELET COUNT: 1332 x10E3/uL
  ALANINE AMINOTRANSFERASE: 56 u/L
  ALBUMIN: 3.9 G/DL
  ALKALINE PHOSPHATASE: 279.67 u/L
  ASPARTATE AMINOTRANSFERASE: 81.67 u/L
  BLOOD UREA NITROGEN: 17 mg/dL
  CARBON DIOXIDE: 25.33 mmol/L
  CHLORIDE: 105.67 MEQ/L
  CHOLESTEROL: 64.67 mg/dL
  CREATINE PHOSPHOKINASE: 435.33 u/L
  CREATININE: 0.16 mg/dL
  GLUCOSE: 162.33 mg/dL
  LACTATE DEHYDROGENASE: 119.67 u/L
  LIPASE: 7.33 u/L
  PHOSPHORUS: 14.4 mg/dL
  POTASSIUM: 6.46 MEQ/L
  SODIUM: 145.43 MEQ/L
  TOTAL BILIRUBIN: 0.17 mg/dL
  TOTAL PROTEIN: 5.9 G/DL
  URIC ACID: 1.63 mg/dL
[2]
  ABSOLUTE BASOPHIL: 0 CELLS/uL
  ABSOLUTE EOSINOPHIL: 83.33 CELLS/uL
  ABSOLUTE LYMPHOCYTE: 7163.33 CELLS/uL
  ABSOLUTE MONOCYTE: 161.33 CELLS/uL
  ABSOLUTE SEGMENTED NEUTROPHIL: 2925.33 CELLS/uL
  BASOPHIL: 0%
  EOSINOPHIL: 1%
  ERYTHROCYTE COUNT: 5.45 x10E6/uL
  HEMATOCRIT: 33.7%
  HEMOGLOBIN: 12.87 G/DL
  LEUKOCYTE COUNT: 10.33 x10E3/uL
  LYMPHOCYTE: 68.33%
  MEAN CORPUSCULAR HEMOGLOBIN: 23.6 pg
  MEAN CORPUSCULAR HEMOGLOBIN CONCENTRATION: 38.2 G/DL
  MEAN CORPUSCULAR VOLUME: 61.83 fL
  MONOCYTE: 1.67%
  NEUTROPHIL: 29%
  NUCLEATED RED BLOOD CELLS: 0 /100WBC
  PLATELET COUNT: 1327 x10E3/uL
  ALANINE AMINOTRANSFERASE: 43 u/L
  ALBUMIN: 3.9 G/DL
  ALKALINE PHOSPHATASE: 294.67 u/L
  ASPARTATE AMINOTRANSFERASE: 79.33 u/L
  BLOOD UREA NITROGEN: 14 mg/dL
  CARBON DIOXIDE: 30 mmol/L
  CHLORIDE: 109 MEQ/L
  CHOLESTEROL: 69.33 mg/dL
  CREATINE PHOSPHOKINASE: 308.33 u/L
  CREATININE: 0.2 mg/dL
  GLUCOSE: 133.67 mg/dL
  LACTATE DEHYDROGENASE: 112.67 u/L
  LIPASE: 8 u/L
  PHOSPHORUS: 10.93 mg/dL
  POTASSIUM: 6.11 MEQ/L
  SODIUM: 149.45 MEQ/L
  TOTAL BILIRUBIN: 0.13 mg/dL
  TOTAL PROTEIN: 6.27 G/DL
  URIC ACID: 0.83 mg/dL
[3]
  ABSOLUTE BASOPHIL: 0 CELLS/uL
  ABSOLUTE EOSINOPHIL: 276.67 CELLS/uL
  ABSOLUTE LYMPHOCYTE: 12157 CELLS/uL
  ABSOLUTE MONOCYTE: 40.67 CELLS/uL
  ABSOLUTE SEGMENTED NEUTROPHIL: 4359 CELLS/uL
  BASOPHIL: 0%
  EOSINOPHIL: 1.67%
  ERYTHROCYTE COUNT: 5.75 x10E6/uL
  HEMATOCRIT: 35.17%
  HEMOGLOBIN: 13.07 G/DL
  LEUKOCYTE COUNT: 16.83 x10E3/uL
  LYMPHOCYTE: 72.33%
  MEAN CORPUSCULAR HEMOGLOBIN: 22.73 pg
  MEAN CORPUSCULAR HEMOGLOBIN CONCENTRATION: 37.2 G/DL
  MEAN CORPUSCULAR VOLUME: 61.23 fL
  MONOCYTE: 0.33%
  NEUTROPHIL: 25.67%
  NUCLEATED RED BLOOD CELLS: 0 /100WBC
  PLATELET COUNT: 1614.33 x10E3/uL
  ALANINE AMINOTRANSFERASE: 39.67 u/L
  ALBUMIN: 3.47 G/DL
  ALKALINE PHOSPHATASE: 268.67 u/L
  ASPARTATE AMINOTRANSFERASE: 76.33 u/L
  BLOOD UREA NITROGEN: 16.67 mg/dL
  CARBON DIOXIDE: 25 mmol/L
  CHLORIDE: 104.33 MEQ/L
  CHOLESTEROL: 59.67 mg/dL
  CREATINE PHOSPHOKINASE: 355 u/L
  CREATININE: 0.23 mg/dL
  GLUCOSE: 160.67 mg/dL
  LACTATE DEHYDROGENASE: 169.33 u/L
  LIPASE: 7.33 u/L
  PHOSPHORUS: 12.67 mg/dL
  POTASSIUM: 6.48 MEQ/L
  SODIUM: 144.93 MEQ/L
  TOTAL BILIRUBIN: 0.13 mg/dL
  TOTAL PROTEIN: 6.1 G/DL
  URIC ACID: 2.87 mg/dL

Source: ChEMBL document CHEMBL3885881, “DrugMatrix”
